US7595183B2, “Cathepsins L-like cysteine protease derived from northern shrimp (Pandalus eous)” (Nichirei Corporation, priority 2002, dated 2009)
Peptide text beside a SMILES is read from it. * marks the point of attachment. Cbz = O=C(OCc1ccccc1)*; CHN2 = [N-]=[N+]=C*; tBu = CC(C)(C)*

Test system: northern shrimp cathepsin L1
Assay: Effects of inhibitors on northern shrimp cathepsin L1, residual activity with Z-Phe-Arg-MCA
Assay type: biochemical, northern shrimp (Pandalus eous)
Conditions: for Residual activity (%): enzyme 1 nM, Z-Phe-Arg-MCA 100 μM
Procedure: Enzymatic activity was assayed at 25° C. using intramolecularly quenched MCA (methyl coumarylamide) substrates in a buffer containing 100 mM sodium acetate, pH 6.0, 100 mM NaCl, 2 mM DTT, 2 mM EDTA and 0.01% Brij-35. The substrate solution was prepared in dimethyl sulfoxide at a concentration of 20 mM. Hydrolysis was initiated by adding the enzyme diluted with the same buffer. Enzymatic activity was determined by measuring fluorescence intensity of the released 7-amino-4-methylcoumarin (AMC) at an excitation wavelength of 380 nm and an emission wavelength of 460 nm.
Enzyme solution was pretreated with any one of inhibitors E64 (L-trans-epoxysuccinyl-leucyl-agmatine), Z-Phe-Phe-CHN2, Z-Phe-Tyr(t-Bu)-CHN2, leupeptin, antipain, PMSF (phenylmethylsulfonyl fluoride), and 1,10-phenanthroline in a buffer (containing 100 mM sodium acetate, 2 mM DTT, 2 mM EDTA, and 0.05% Triton X-100). Residual enzymatic activity was then measured with fluorescent substrate Z-Phe-Arg-MCA. The final concentrations of the enzymes and the substrate were 1 nM and 100 μM, respectively. The residual enzymatic activity was measured with the method described above.

Compound | Inhibition of northern shrimp cathepsin L1 (in words) | Residual activity (%) (inhibitor 0.1 μM) | Residual activity (%) (inhibitor 1 μM) | Residual activity (%) (inhibitor 1 mM) | Residual activity (%) (inhibitor 10 mM) | Residual activity (%) (inhibitor 10 μM)
CC(C)C[C@H](NC(=O)[C@H]1O[C@@H]1C(=O)O)C(=O)NCCCCN=C(N)N (relative stereo) [E64, L-trans-epoxysuccinyl-leucyl-agmatine] | strongly inhibited | 0 | 0 | – | – | –
c1cnc2c(c1)ccc1cccnc12 [1,10-Phenanthroline, 1,10-phenanthroline] | – | – | – | 99 | 98 | –
CC(=O)N[C@@H](CC(C)C)C(=O)N[C@@H](CC(C)C)C(=O)N[C@H](C=O)CCCNC(=N)N [Leupeptin, leupeptin] | strongly inhibited | – | 0 | – | – | 0
O=S(=O)(F)Cc1ccccc1 [PMSF, phenylmethylsulfonyl fluoride] | – | – | – | 100 | 100 | –
[N-]=[N+]=CC(=O)[C@H](Cc1ccccc1)NC(=O)[C@H](Cc1ccccc1)NC(=O)OCc1ccccc1 [Z-Phe-Phe-CHN2] (Cbz-Phe-Phe-CHN2) | did not inhibit the present enzyme activity so much | – | 78 | – | – | 55
CC(C)(C)Oc1ccc(C[C@H](NC(=O)[C@H](Cc2ccccc2)NC(=O)OCc2ccccc2)C(=O)C=[N+]=[N-])cc1 [Z-Phe-Tyr(t-Bu)-CHN2] (Cbz-Phe-Tyr(tBu)-CHN2) | did not inhibit the present enzyme activity so much | – | 94 | – | – | 86
